Test results: EP3685668B1, “COMPOSITION COMPRISING ACIBENZOLAR-S-METHYL AS EFFECTIVE INGREDIENT FOR CONTROLLING BURSAPHELENCHUS XYLOPHILUS DISEASE AND METHOD FOR CONTROLLING BURSAPHELENCHUS XYLOPHILUS USING SAME” (Industry Foundation of Chonnam National University, priority 2017, dated 2019)

Tests used:
Assay in all cases: qRT-PCR expression of induced resistance gene in pine tree callus
Type in all cases: cell-based
[1] = test system: Cytochrome_P450; details: for Expression of induced resistance gene, Cytochrome_P450: 24 hours
Description: For in vitro analysis of induced resistance, the expression of PR genes and other plant defense-related genes was determined, which are evolved in various defense mechanisms including induced resistance. The primers of sixteen induced resistance-related genes of pine tree used in this invention were listed in the below and elongation factor_1 alpha were used as a reference gene. […] The primer list of defense resistance-related genes
(§1) After the treatment with 200 µg / mℓ of candidates of the selected induced resistance material, expression of the induced resistance-related gene in pine callus was determined by qRT-PCR using the primer pairs of defense resistance-related genes in Table 4. As a candidate group of an induced resistance material in pine tree, acibenzolar-S-methyl (ASM), TDL (Tiadinil), ITL (Isotianil), PBZ (Probenzole), AZO (Azoxystrobin), VMA (Validamycin A), MeJA (Methyl jasmonate), BABA (DL-3-aminobutyric acid), 2,3-BDO (2,3-Butanediol), GABA (r-Aminobutyric acid), glucan (Glucan), ER (Ergosterol), and AZA (Azelaic acid) were used. For the in vitro analysis of the expression of induced resistance gene in pine callus, the selected induced resistance materials were applied with 500 µℓ of LM liquid medium on a surface of pine tree callus (100 mg) in 12-well microplate to give final concentration of 200 µg/mℓ. Then, the callus surface was sufficiently reacted for 24 hours with the candidate of pine tree induced resistance material by shaking at 50 rpm in a 25 °C shaking incubator under dark condition. RNAs were extracted from the callus after completion of the reaction with an induced resistance material, followed by synthesis of cDNAs. Then, by carrying out qRT-PCR, the expression of induced resistance genes was determined.
Thus, the following tests were carried out using acibenzolar-S-methyl only. Expression of the induced resistance genes at different culture time after the chemical treatment was examined. For the in vitro assay, LM medium containing pine tree callus was treated with acibenzolar-S-methyl at concentration of 200 µg / mℓ, followed by reaction for 1 day, 7 days, or 14 days in a 25°C shaking incubator under dark condition. RNAs were extracted from the callus after the reaction followed by synthesis of cDNAs. Then, by carrying out qRT-PCR, the expression of the induced resistance genes was determined. Depending on reaction time after the treatment, i.e., after 1 day, 7 days, or 14 days, the expression of the obtained induced resistance genes was examined. […]
For the surface treatment (spraying treatment) of pine tree callus, 100 mg of the pine tree callus were dunked in 500 µℓ LM liquid medium and 500 µℓ of 400 µg/mℓ acibenzolar-S-methyl were sprayed (i.e., sprayed 5 times, 100 µℓ for each spraying, 200 µg/mℓ) on the callus surface. Then, the pine callus sprayed with acibenzolar-S-methyl was reacted for 24 hours by shaking at 50 rpm in a 25°C shaking incubator under dark condition. After the completion of the 24-hour reaction, RNAs were extracted from the callus followed by synthesis of cDNAs. Then, by carrying out qRT-PCR, expression of the induced resistance gene was determined.

[2] = test system: PR_2 family; details: for Expression of induced resistance gene, PR_2 family: 24 hours
Description: (§2) For in vitro analysis of induced resistance, the expression of PR genes and other plant defense-related genes was determined, which are evolved in various defense mechanisms including induced resistance. The primers of sixteen induced resistance-related genes of pine tree used in this invention were listed in the below and elongation factor_1 alpha were used as a reference gene. [Table 4] The primer list of defense resistance-related genes
as §1, with “determined. [Table 5] Expression of induced resistance gene in pine tree callus by TDL, PBZ, ASM, ITL, AZO, VMA, glucan, and AZA” for “determined.”
(§3) Based on the results of assay using young plants and gene expression by selected induce resistance materials, it seemed that acibenzolar-S-methyl had the most excellent effect. Thus, the following tests were carried out using acibenzolar-S-methyl only. Expression of the induced resistance genes at different culture time after the chemical treatment was examined. For the in vitro assay, LM medium containing pine tree callus was treated with acibenzolar-S-methyl at concentration of 200 µg / mℓ, followed by reaction for 1 day, 7 days, or 14 days in a 25°C shaking incubator under dark condition. RNAs were extracted from the callus after the reaction followed by synthesis of cDNAs. Then, by carrying out qRT-PCR, the expression of the induced resistance genes was determined. Depending on reaction time after the treatment, i.e., after 1 day, 7 days, or 14 days, the expression of the obtained induced resistance genes was examined. As a result of the in vitro callus assay depending on reaction time after the treatment with acibenzolar-S-methyl, the expression of the induced resistance-related genes is the highest at 1 day after the treatment with acibenzolar-S-methyl and gradually diminished over time, as it is shown in Table 7. In this regard, it is contemplated that the expression of genes acquired by acibenzolar-S-methyl is not maintained in highly expressed state until the pathogen invasion and just memorized with at minimum level so that the energy consumption by plant can be efficiently managed. [Table 7] Expression of induced resistance gene in pine tree callus by acibenzolar-S-methyl depending on reaction time
(§4) To have an in vitro assay according to different methods of treatment with acibenzolar-S-methyl, two separate treatment methods, i.e., surface treatment (spraying treatment) of pine tree callus and direct application of the induced resistance material to an LM medium containing pine tree callus, were performed. […]

[3] = test system: Hydroxyproline; details: for Expression of induced resistance gene, Hydroxyproline: 24 hours
Description: as §2
as §1, with “determined. [Table 5] Expression of induced resistance gene in pine tree callus by TDL, PBZ, ASM, ITL, AZO, VMA, glucan, and AZA” for “determined.”
as §3, §4

[4] = test system: Metallothionein; details: for Expression of induced resistance gene, Metallothionein: 24 hours
Description: as §2
as §1, with “determined. [Table 5] Expression of induced resistance gene in pine tree callus by TDL, PBZ, ASM, ITL, AZO, VMA, glucan, and AZA” for “determined.”
as §3, §4

[5] = test system: PR_4 family; details: for Expression of induced resistance gene, PR_4 family: 24 hours
Description: as §2
as §1, with “determined. [Table 5] Expression of induced resistance gene in pine tree callus by TDL, PBZ, ASM, ITL, AZO, VMA, glucan, and AZA” for “determined.”
as §3, §4

[6] = test system: Antipeptide; details: 200 µg/mℓ; for Expression of induced resistance gene, Antipeptide: 24 hours
Description: as §2
as §1, with “determined. [Table 5] Expression of induced resistance gene in pine tree callus by TDL, PBZ, ASM, ITL, AZO, VMA, glucan, and AZA” for “determined.”
as §3, §4

[7] = test system: Extensin; details: for Expression of induced resistance gene, Extensin: 24 hours
Description: as §2
as §1, with “determined. [Table 5] Expression of induced resistance gene in pine tree callus by TDL, PBZ, ASM, ITL, AZO, VMA, glucan, and AZA” for “determined.”
as §3, §4

[8] = 200 µg/mℓ, Direct supplying as a medium component
[9] = concentration series, 200 µg/mℓ

CC(N)CC(=O)O (racemic) [BABA, DL-3-aminobutyric acid]
Expression of induced resistance gene, Cytochrome_P450 ([1]; 200 µg/mℓ): 0.37 | Expression of induced resistance gene, PR_2 family ([2]; 200 µg/mℓ): 0.43 | Expression of induced resistance gene, Hydroxyproline ([3]; 200 µg/mℓ): 0.36 | Expression of induced resistance gene, Metallothionein ([4]; 200 µg/mℓ): 1.17 | Expression of induced resistance gene, PR_4 family ([5]; 200 µg/mℓ): 7.01 | Expression of induced resistance gene, Antipeptide [6]: 0.4 | Expression of induced resistance gene, Extensin ([7]; 200 µg/mℓ): 0.78

CC(O)C(C)O (stereo not shown) [2,3-BDO, 2,3-Butanediol]
Expression of induced resistance gene, Cytochrome_P450 ([1]; 200 µg/mℓ): 0.88 | Expression of induced resistance gene, PR_2 family ([2]; 200 µg/mℓ): 1.26 | Expression of induced resistance gene, Hydroxyproline ([3]; 200 µg/mℓ): 0.83 | Expression of induced resistance gene, Metallothionein ([4]; 200 µg/mℓ): 2.53 | Expression of induced resistance gene, PR_4 family ([5]; 200 µg/mℓ): 1.41 | Expression of induced resistance gene, Antipeptide [6]: 1.31 | Expression of induced resistance gene, Extensin ([7]; 200 µg/mℓ): 1.07

CSC(=O)c1cccc2nnsc12 [ASM, acibenzolar-S-methyl]
Expression of induced resistance gene, Cytochrome_P450 ([1]; 200 µg/mℓ): 1.71 | Expression of induced resistance gene, Cytochrome_P450 [1, 8]: 9.99 | Expression of induced resistance gene, Cytochrome_P450 ([1]; 200 µg/mℓ, Spraying): 1.71 | Gene expression level, Cytochrome_P450 ([1]; 200 µg/mℓ, After 1 day): 7.21 | Gene expression level, Cytochrome_P450 ([1]; 200 µg/mℓ, After 7 days): 0.85 | Gene expression level, Cytochrome_P450 ([1]; 200 µg/mℓ, After 14 days): 0.04 | Gene expression level, Cytochrome_P450 ([1]; concentration series, 2 µg/mℓ): 1.231 | Gene expression level, Cytochrome_P450 ([1]; concentration series, 20 µg/mℓ): 1.173 | Gene expression level, Cytochrome_P450 [1, 9]: 1.231 | Expression of induced resistance gene, PR_2 family ([2]; 200 µg/mℓ): 1.65 | Expression of induced resistance gene, PR_2 family [2, 8]: 5.5 | Expression of induced resistance gene, PR_2 family ([2]; 200 µg/mℓ, Spraying): 1.65 | Gene expression level, PR_2 family ([2]; 200 µg/mℓ, After 1 day): 5.5 | Gene expression level, PR_2 family ([2]; 200 µg/mℓ, After 7 days): 0.97 | Gene expression level, PR_2 family ([2]; 200 µg/mℓ, After 14 days): 0.42 | Gene expression level, PR_2 family ([2]; concentration series, 20 µg/mℓ): 2.694 | Gene expression level, PR_2 family [2, 9]: 1.117 | Expression of induced resistance gene, Hydroxyproline ([3]; 200 µg/mℓ): 1.79 | Expression of induced resistance gene, Hydroxyproline [3, 8]: 7.89 | Expression of induced resistance gene, Hydroxyproline ([3]; 200 µg/mℓ, Spraying): 1.79 | Gene expression level, Hydroxyproline ([3]; 200 µg/mℓ, After 1 day): 10.06 | Gene expression level, Hydroxyproline ([3]; 200 µg/mℓ, After 7 days): 1.2 | Gene expression level, Hydroxyproline ([3]; 200 µg/mℓ, After 14 days): 0.32 | Gene expression level, Hydroxyproline ([3]; concentration series, 2 µg/mℓ): 3.138 | Gene expression level, Hydroxyproline ([3]; concentration series, 20 µg/mℓ): 4.438 | Gene expression level, Hydroxyproline [3, 9]: 4.627 | Expression of induced resistance gene, Metallothionein ([4]; 200 µg/mℓ): 0.11 | Expression of induced resistance gene, Metallothionein [4, 8]: 29.86 | Expression of induced resistance gene, Metallothionein ([4]; 200 µg/mℓ, Spraying): 0.11 | Gene expression level, Metallothionein ([4]; 200 µg/mℓ, After 1 day): 7.89 | Gene expression level, Metallothionein ([4]; 200 µg/mℓ, After 7 days): 0.41 | Gene expression level, Metallothionein ([4]; 200 µg/mℓ, After 14 days): 0.29 | Gene expression level, Metallothionein ([4]; concentration series, 2 µg/mℓ): 0.5946 | Gene expression level, Metallothionein ([4]; concentration series, 20 µg/mℓ): 0.79 | Gene expression level, Metallothionein [4, 9]: 0.9266 | Expression of induced resistance gene, PR_4 family ([5]; 200 µg/mℓ): 2.6 | Expression of induced resistance gene, PR_4 family [5, 8]: 5.46 | Expression of induced resistance gene, PR_4 family ([5]; 200 µg/mℓ, Spraying): 2.6 | Gene expression level, PR_4 family ([5]; 200 µg/mℓ, After 1 day): 5.46 | Gene expression level, PR_4 family ([5]; 200 µg/mℓ, After 7 days): 0.74 | Gene expression level, PR_4 family ([5]; 200 µg/mℓ, After 14 days): 0.2 | Gene expression level, PR_4 family ([5]; concentration series, 2 µg/mℓ): 2.25 | Gene expression level, PR_4 family ([5]; concentration series, 20 µg/mℓ): 2.056 | Gene expression level, PR_4 family [5, 9]: 1.24 | Expression of induced resistance gene, Antipeptide [6]: 1.83 | Expression of induced resistance gene, Antipeptide ([6]; Direct supplying as a medium component): 7.21 | Expression of induced resistance gene, Antipeptide ([6]; Spraying): 1.83 | Gene expression level, Antipeptide ([6]; After 1 day): 10.63 | Gene expression level, Antipeptide ([6]; After 7 days): 1.28 | Gene expression level, Antipeptide ([6]; After 14 days): 0.58 | Gene expression level, Antipeptide ([6]; concentration series): 5.352 | Expression of induced resistance gene, Extensin ([7]; 200 µg/mℓ): 2.1 | Expression of induced resistance gene, Extensin [7, 8]: 2.27 | Expression of induced resistance gene, Extensin ([7]; 200 µg/mℓ, Spraying): 2.1 | Gene expression level, Extensin ([7]; 200 µg/mℓ, After 1 day): 9.99 | Gene expression level, Extensin ([7]; 200 µg/mℓ, After 7 days): 1.23 | Gene expression level, Extensin ([7]; 200 µg/mℓ, After 14 days): 0.33 | Gene expression level, Extensin ([7]; concentration series, 2 µg/mℓ): 0.9012 | Gene expression level, Extensin ([7]; concentration series, 20 µg/mℓ): 1.385 | Gene expression level, Extensin [7, 9]: 1.693

O=C(O)CCCCCCCC(=O)O [AZA, Azelaic acid]
Expression of induced resistance gene, Cytochrome_P450 ([1]; 200 µg/mℓ): 1.05 | Expression of induced resistance gene, PR_2 family ([2]; 200 µg/mℓ): 1.02 | Expression of induced resistance gene, Hydroxyproline ([3]; 200 µg/mℓ): 0.9 | Expression of induced resistance gene, Metallothionein ([4]; 200 µg/mℓ): 1.97 | Expression of induced resistance gene, PR_4 family ([5]; 200 µg/mℓ): 0.99 | Expression of induced resistance gene, Antipeptide [6]: 1.43 | Expression of induced resistance gene, Extensin ([7]; 200 µg/mℓ): 1.15

CO/C=C(/C(=O)OC)c1ccccc1Oc1cc(Oc2ccccc2C#N)ncn1 [AZO, Azoxystrobin]
Expression of induced resistance gene, Cytochrome_P450 ([1]; 200 µg/mℓ): 1.17 | Expression of induced resistance gene, PR_2 family ([2]; 200 µg/mℓ): 1.8 | Expression of induced resistance gene, Hydroxyproline ([3]; 200 µg/mℓ): 1.11 | Expression of induced resistance gene, Metallothionein ([4]; 200 µg/mℓ): 0.14 | Expression of induced resistance gene, PR_4 family ([5]; 200 µg/mℓ): 2.04 | Expression of induced resistance gene, Antipeptide [6]: 0.69 | Expression of induced resistance gene, Extensin ([7]; 200 µg/mℓ): 2.01
